# Test results taken from the supplement of paper PMC4862054.
# Columns and labels:
# CAL-85-1 = experiment: drug sensitivity score (DSS), CellTiter-Blue viability (DSS (AUC-based score)); higher = stronger viability inhibition; extreme values may be limits of the assay; settings: incubation time: 72 h
# Description: (§1)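 DSRT with the CellTiter-Blue (resazurin reduction) viability readout, fluorescence 560/590 nm, 72 h incubation. Plates were normalised to DMSO and benzethonium chloride controls. DSS is computed from the area under the fitted dose-response curve (5 or 9 concentrations).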
# MDA-MB-453 = experiment: as above; settings: incubation time: 72 h
# Description: as §1
# Hs578T = experiment: as above; settings: incubation time: 72 h
# Description: as §1
# HCC1143 = experiment: as above; settings: incubation time: 72 h
# Description: as §1
# DU-4475 = experiment: as above; settings: incubation time: 72 h
# Description: as §1
# MDA-MB-468 [1] = experiment: as above; settings: incubation time: 72 h
# Description: as §1
# HCC1599 = experiment: as above; settings: incubation time: 72 h
# Description: as §1
# HDQ-P1 = experiment: as above; settings: incubation time: 72 h
# Description: as §1
# HCC1937 = experiment: as above; settings: incubation time: 72 h
# Description: as §1
# MFM-223 = experiment: as above; settings: incubation time: 72 h
# Description: as §1
# CAL-148 = experiment: as above; settings: incubation time: 72 h
# Description: as §1
# CAL-120 = experiment: as above; settings: incubation time: 72 h
# Description: as §1
# BT-474 = experiment: as above; settings: incubation time: 72 h
# Description: as §1
# BT-549 = experiment: as above; settings: incubation time: 72 h
# Description: as §1
# MDA-MB-436 = experiment: as above; settings: incubation time: 72 h
# Description: as §1
# CAL-51 = experiment: as above; settings: incubation time: 72 h
# Description: as §1
# SK-BR-3 = experiment: as above; settings: incubation time: 72 h
# Description: as §1
# MDA-MB-231 = experiment: as above; settings: incubation time: 72 h
# Description: as §1
# MDA-MB-468 [2] = settings: 72 h
# Outline: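 In this assay, breast cancer cell lines spent 72 h with compound at 5 concentrations in 10-fold steps over a compound-specific 10,000-fold range. The first readout was cell death by CellTox Green fluorescence, and the second was viability by CellTiter-Glo luminescence, each normalised per plate to 0.1 % DMSO and a positive kill control. EC50 came from the dose-response curves, censored at the top concentration.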
Structure (SMILES),drug sensitivity score (CAL-85-1),drug sensitivity score (MDA-MB-453),drug sensitivity score (Hs578T),drug sensitivity score (HCC1143),drug sensitivity score (DU-4475),drug sensitivity score (MDA-MB-468 [1]),drug sensitivity score (HCC1599),drug sensitivity score (HDQ-P1),drug sensitivity score (HCC1937),drug sensitivity score (MFM-223),drug sensitivity score (CAL-148),drug sensitivity score (CAL-120),drug sensitivity score (BT-474),drug sensitivity score (BT-549),drug sensitivity score (MDA-MB-436),drug sensitivity score (CAL-51),drug sensitivity score (SK-BR-3),drug sensitivity score (MDA-MB-231),"EC50, CellTiter-Glo (MDA-MB-468 [2]) [nM]"
c1ccc2c(CCNc3ccc(Nc4ccncc4)cc3)c[nH]c2c1 [Serdemetan],0,3.89,2.84,0,3.86,0,1.87,0,0,0,4.36,0,0,6.96,8.76,1.53,0,0,2280
CNC(=O)c1cc(Oc2ccc(NC(=O)Nc3ccc(Cl)c(C(F)(F)F)c3)c(F)c2)ccn1 [Regorafenib],0,5.4,2.98,9.31,3.68,1.71,1.06,0,3.4,9.2,0,1.05,1.39,1.64,0,3.37,0,8.54,6340
O=C(/C=C/c1cccc(S(=O)(=O)Nc2ccccc2)c1)NO [Belinostat],12.2,22.4,8.1,10.3,15,8.06,14.6,11.8,12.3,12.7,17.1,19,11.8,8.08,12.2,10.6,19,12.5,410
COc1cc(OC2CCN(C)CC2)ccc1Nc1ncc2c(n1)n(C1CCCC1)c(=O)n2C [AZ 3146],1.25,3.31,0,0,1.56,0,0,0,0,0,4.7,0.478,0,0,0,8.18,2.13,3.65,6650
Cc1[nH]c2ccccc2c1CCNCc1ccc(/C=C/C(=O)NO)cc1 [Panobinostat],18.2,27.8,17.6,16.3,20,11.3,16.1,14,17.9,14.6,22.1,22.2,17.5,9.07,9.42,15,23,16.5,39
CC(C)C[C@@H](C(=O)N[C@H](C(=O)OC1CCCC1)c1ccccc1)[C@H](O)C(=O)NO [Tosedostat],4.66,15.8,2.31,7.29,13.4,13.2,0,4.23,14.9,8.63,7.49,12.7,0,11.3,1.84,4.1,0,12.5,75.6
COCC[n+]1c2c(n(Cc3cnccn3)c1C)C(=O)c1ccccc1C2=O [YM155],38,35.5,22.6,30.3,23.3,40.3,34,33.6,39.1,29.7,35.7,40.9,32.9,26.8,37.9,31.9,37,40,3.73
